Assay results from patent US11331327B2, “Antibacterial use of halogenated salicylanilides” (UNION therapeutics A/S, priority 2014, dated 2022).
Read-outs that look alike come from different tables or passages of the source.

Tested on: S. aureus clinical isolates and S. aureus ATCC 29213
Assay: MIC assay according to CLSI criteria, Example 2, S. aureus strains
Type: cell-based, Staphylococcus aureus
Conditions: Staphylococcus aureus, read-out: MIC
How it was run: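 S. aureus grown aerobically in cation-adjusted Mueller Hinton broth at 37° C. Exponential-phase cultures inoculated at about 5×10^5 cells per well, then incubated 18 hours at 37° C.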

Measured: MIC

C/C(=C\C(=O)OCCCCCCCCC(=O)O)C[C@@H]1OC[C@H](C[C@@H]2O[C@H]2[C@@H](C)[C@H](C)O)[C@@H](O)[C@H]1O [Mupirocin]
0.25 µg/mL: ATCC 29213 / MRSA, strain MRSA 15 | ATCC 29213 / MRSA, strain MRSA 19 | ATCC 29213 / MRSA, strain MRSA 20 | ATCC 29213 / MRSA, strain MRSA 22 | ATCC 29213 / MRSA, strain MRSA 23 | ATCC 29213 / MRSA, strain MRSA 24 | ATCC 29213 / MRSA, strain MRSA 25 | ATCC 29213 / MRSA, strain MRSA 27 | ATCC 29213 / MRSA, strain MRSA 27b | ATCC 29213 / MRSA, strain MRSA 29 | ATCC 29213 / MRSA, strain MRSA 31 | ATCC 29213 / MRSA, strain MRSA 32 | ATCC 29213 / MRSA, strain MRSA 33 | ATCC 29213 / MRSA, strain MRSA 34 | ATCC 29213 / MRSA, strain MRSA 36 | ATCC 29213 / MRSA, strain MRSA 37 | ATCC 29213 / MRSA, strain MRSA 39 | ATCC 29213 / MRSA, strain MRSA 40 | ATCC 29213 / MRSA, strain MRSA 42 | ATCC 29213 / MRSA, strain MRSA 43 | ATCC 29213 / MRSA, strain MRSA 44 | ATCC 29213 / MRSA, strain MRSA 47 | ATCC 29213 / MRSA, strain MRSA 49 | ATCC 29213 / MRSA, strain MRSA 50 | ATCC 29213 / MRSA, strain MRSA 51 | ATCC 29213 / MRSA, strain MRSA 52 | ATCC 29213 / MRSA, strain MRSA 53 | ATCC 29213 / MRSA, strain MRSA 54 | ATCC 29213 / MRSA, strain MRSA 55 | ATCC 29213 / MRSA, strain MRSA 56 | ATCC 29213 / MRSA, strain MRSA 60 | ATCC 29213 / MRSA, strain MRSA 61 | ATCC 29213 / MRSA, strain MRSA 62 | ATCC 29213 / MRSA, strain MRSA 64 | ATCC 29213 / MRSA, strain MRSA 65 | ATCC 29213 / MRSA, strain MRSA 66 | ATCC 29213 / MRSA, strain MRSA 68 | ATCC 29213 / MRSA, strain MRSA 70 | ATCC 29213 / MRSA, strain MRSA 72 | ATCC 29213 / MRSA, strain MRSA 73 | ATCC 29213 / MRSA, strain MRSA 74 | ATCC 29213 / MRSA, strain MRSA 76 | ATCC 29213 / MRSA, strain MRSA 77 | ATCC 29213 / MRSA, strain MRSA 78 | ATCC 29213 / MRSA, strain MRSA 79 | ATCC 29213 / MRSA, strain MRSA 80 | ATCC 29213 / MRSA, strain MRSA 81 | ATCC 29213 / MRSA, strain MRSA 82 | ATCC 29213 / MRSA, strain MRSA 83 | ATCC 29213 / MRSA, strain MRSA 84 | ATCC 29213 / MRSA, strain MRSA 85 | ATCC 29213 / MRSA, strain MRSA 86 | ATCC 29213 / MRSA, strain MRSA 87 | ATCC 29213 / MRSA, strain MRSA 88 | ATCC 29213 / MRSA, strain MRSA 89 | ATCC 29213 / MRSA, strain MRSA 90 | ATCC 29213 / MRSA, strain MRSA 91 | ATCC 29213 / MRSA, strain MRSA 92 | ATCC 29213 / MRSA, strain MRSA 93 | ATCC 29213 / MRSA, strain MRSA 94 | ATCC 29213 / MRSA, strain MRSA 95 | ATCC 29213 / MRSA, strain MRSA 97 | ATCC 29213 / MRSA, strain MRSA 101 | ATCC 29213 / MRSA, strain MRSA 102 | ATCC 29213 / MRSA, strain MRSA 103 | ATCC 29213 / MRSA, strain MRSA 104 | ATCC 29213 / MRSA, strain MRSA 105 | ATCC 29213 / MRSA, strain MRSA 106 | ATCC 29213 / MRSA, strain MRSA 107 | ATCC 29213 / MRSA, strain MRSA 108 | ATCC 29213 / MRSA, strain MRSA 109 | ATCC 29213 / MRSA, strain MRSA 111 | ATCC 29213 / MRSA, strain MRSA 112 | ATCC 29213 / MRSA, strain MRSA 113 | ATCC 29213 / NEWMAN, strain Newman
0.125 µg/mL: ATCC 29213 / MRSA, strain MRSA 18 | ATCC 29213 / MRSA, strain MRSA 21 | ATCC 29213 / MRSA, strain MRSA 30 | ATCC 29213 / MRSA, strain MRSA 38 | ATCC 29213 / MRSA, strain MRSA 41 | ATCC 29213 / MRSA, strain MRSA 57 | ATCC 29213 / MRSA, strain MRSA 58 | ATCC 29213 / MRSA, strain MRSA 59 | ATCC 29213 / MRSA, strain MRSA 63 | ATCC 29213 / MRSA, strain MRSA 67 | ATCC 29213 / MRSA, strain MRSA 69 | ATCC 29213 / MRSA, strain MRSA 71 | ATCC 29213 / MRSA, strain MRSA 96 | ATCC 29213 / MRSA, strain MRSA 110 | ATCC 29213 / MSSA, strain MSSA 01 | ATCC 29213 / MSSA, strain MSSA 02
0.13 µg/mL: ATCC 29213 / MRSA, strain MRSA 45 | ATCC 29213 / MRSA, strain MRSA 46 | ATCC 29213 / MRSA, strain MRSA 48
> 16 µg/mL: ATCC 29213 / MRSA, strain MRSA 16 | ATCC 29213 / MRSA, strain MRSA 17
0.5 µg/mL: ATCC 29213 / MRSA, strain MRSA 26 | ATCC 29213 / MRSA, strain MRSA 28 | ATCC 29213 / MRSA, strain MRSA 35 | ATCC 29213 / MRSA, strain MRSA 75 | ATCC 29213 / MRSA, strain MRSA 98 | ATCC 29213 / MRSA, strain MRSA 99 | ATCC 29213 / MRSA, strain MRSA 100
